Laboratory results published in patent publication EP4129284B1, “SERTACONAZOL FOR PROVIDING A SPORISTATIC AND/OR SPORICIDAL EFFECT” (Dr. Pfleger Arzneimittel GmbH, priority 2021, dated 2023).

Test system: T. rubrum
Experiment: Full skin model infected with spores, treatment, histology (PAS-staining)
Type: cell-based, Trichophyton rubrum
Conditions: for outgrowth of the spores of T. rubrum: sertaconazol 0.025 µg/mL, Fig. 5; for spread of T. rubrum: up to 72 h after application, ciclopiroxolamin 400 µg/mL, terbinafin 0.050 µg/mL, histology vs infected untreated control
Text: For an application in vivo, there is the additional requirement for the antimycotic substances to evoke a targeted antimycotic activity in the presence of human cells. Thus, 3D-cell-cultures such as full skin models are used to simulate the in vivo conditions. Such full skin models are for example described in Reddersen K, Wiegand C, Elsner P, Hipler UC. Three-dimensional human skin model infected with Staphylococcus aureus as a tool for evaluation of bioactivity and biocompatibility of antiseptics. Int J Antimicrob Agents. 2019; 54(3):283-291; Wiegand C, Fink S, Beier O, Horn K, Pfuch A, Schimanski A, Grünler B, Hipler UC, Elsner P. Dose- and Time-Dependent Cellular Effects of Cold Atmospheric Pressure Plasma Evaluated in 3D Skin Models. Skin Pharmacol Physiol. 2016;29(5):257-265. Particularly, such full skin models are made of a collagen matrix, which is colonized with primary human fibroblasts, and a fully differentiated epidermis made of primary human keratinocytes. For the experiments, the model is infected in vitro with spores, such that a determination of the sporistatic or sporicidal influence of the substances to be examined at in vivo relevant conditions is allowed. Compared to a 2D-model, the 3D full skin model has the advantage that the cells are in their natural three-dimensional surrounding and show a corresponding behaviour. Such, the antimycotic and sporistatic or sporicidal effects can be examined in situ and in the presence of human cells.
The spore suspensions and the solutions of sertaconazol, ciclopiroxolamin and terbinafin were prepared as in Example 1, wherein the respective test concentrations were obtained by diluting these solutions in ultrapure water (WFI; Fresenius Kabi) instead of SGB (Merck). Full skin models were produced as previously described [Reddersen K, Wiegand C, Elsner P, Hipler UC. Three-dimensional human skin model infected with Staphylococcus aureus as a tool for evaluation of bioactivity and biocompatibility of antiseptics. Int J Antimicrob Agents. 2019; 54(3):283-291; Wiegand C, Fink S, Beier O, Horn K, Pfuch A, Schimanski A, Grünler B, Hipler UC, Elsner P. Dose- and Time-Dependent Cellular Effects of Cold Atmospheric Pressure Plasma Evaluated in 3D Skin Models. Skin Pharmacol Physiol. 2016;29(5):257-265].Particularly, normal human dermal fibroblasts (NHDF; Lot 1060702.1, Promocell) and normal human epidermal keratinocytes (NHEK; Lot 9100102, Promocell) were used. Fibroblasts were cultivated in Dulbecco's modified eagle medium (DMEM; Lot MC09049P, Amimed), with 2% foetal calf serum (Lot P160509; PAN), 5 ng/mL hFGF (Lot 0329586; novoprotein) and 5 µg/ml Insulin (Lot H07443P, AMIMED) at 37°C and a 5% CO2 atmosphere. […]

| Compound | outgrowth of the spores of T. rubrum (48 h treatment) | outgrowth of the spores of T. rubrum (72 h treatment) | spread of T. rubrum |
| --- | --- | --- | --- |
| Clc1ccc(C(Cn2ccnc2)OCc2csc3c(Cl)cccc23)c(Cl)c1 (stereo not shown) [Sertaconazol, sertaconazol] | inhibit the outgrowth | reduce the outgrowth |  |
| CN(C/C=C/C#CC(C)(C)C)Cc1cccc2ccccc12 [Terbinafin, terbinafin] |  |  | did not have any effect |
| Cc1cc(C2CCCCC2)n(O)c(=O)c1 [Ciclopiroxolamin, ciclopiroxolamin] |  |  | reduce the spread of T. rubrum but could not inhibit it |
